Test systems include CCRF-CEM leukemia; HCT-15 colon; MDA-MB-231 breast; MOLT-4 leukemia; NCI-H226 lung; NCI-H23 lung; NCI-H522 lung; SNB-75 CNS; SR leukemia; TK-10 renal.
Common to all, as to test: DTP human tumour cell line panel, 48 h

Several values for one entry are separate records, joined by “and”; a condition that tells them apart may be missing. Equal values may be shown once.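 Assay format: 96-well plates, 48-hour exposure. GI50 is the concentration that inhibits growth by half. TGI marks complete inhibition of growth.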

With `COc1cccc(C2c3cc4c(cc3OC(C)(O)C2C)OCO4)c1O` (stereo unspecified), the total growth inhibition concentration (TGI) (commonly the concentration giving total growth inhibition) in the assay on CCRF-CEM leukemia is 33.8 µM; with HCT-15 colon it was 27.8 µM; with MDA-MB-231 breast, 19.2 µM; with MOLT-4 leukemia it was above 66.2 µM; in the assay with NCI-H226 lung, 18.7 µM; in the assay on NCI-H23 lung it was 12.4 µM. The concentration for total growth inhibition (TGI) is 5.6 µM in the assay on NCI-H522 lung, 30.8 µM with SNB-75 CNS, above 42.1 µM in the assay on SR leukemia and 51 µM with TK-10 renal.
Consider `O=C(Nc1ccccc1O)c1cccc(NC2=C(Cl)C(=O)N(Cc3ccccc3)C2=O)c1`, for which the GI50 (commonly the concentration giving 50% growth inhibition) in the assay with CCRF-CEM leukemia was below 0.0179 µM; in the assay on HCT-15 colon it was 2.02 µM; in the assay with MDA-MB-231 breast it was 1.89 µM; with MOLT-4 leukemia, 0.712 µM; in the assay on NCI-H226 lung, 3.7 µM; in the assay with NCI-H23 lung, 3.44 µM. Further, the GI50 in the assay on NCI-H522 lung was 9.02 µM; in the assay with SNB-75 CNS it was 13.5 µM; in the assay with SR leukemia, 0.583 µM; with TK-10 renal, 4.69 µM. The concentration for total growth inhibition (TGI) came out at 3.85 µM in the assay with CCRF-CEM leukemia; 5.13 µM with HCT-15 colon; 7.53 µM with MDA-MB-231 breast; 4.01 µM in the assay with MOLT-4 leukemia; 11.5 µM in the assay on NCI-H226 lung; 9.38 µM with NCI-H23 lung. Moreover, the TGI was found to be 28.5 µM in the assay with NCI-H522 lung, 33.1 µM in the assay with SNB-75 CNS, 2.57 µM in the assay with SR leukemia and 13.4 µM in the assay with TK-10 renal.
In the case of `Cn1cc(-c2nc(-c3c[nH]c4ncccc34)cs2)c2cc(F)ccc21`, the GI50 with CCRF-CEM leukemia is 3.04 µM; in the assay with HCT-15 colon it was 2.88 µM; in the assay with MDA-MB-231 breast, 2.32 µM; in the assay on MOLT-4 leukemia it was 3.16 µM; with NCI-H226 lung, 4.63 µM; in the assay on NCI-H23 lung, 2.4 µM. Besides, the GI50 in the assay with NCI-H522 lung was 2.7 µM; with SNB-75 CNS, 2.78 µM; in the assay on SR leukemia, 2.44 µM; in the assay on TK-10 renal, 2.78 µM. For the same molecule, the concentration for total growth inhibition (TGI) was above 52.6 µM in the assay on CCRF-CEM leukemia; above 45 µM with HCT-15 colon; 8.36 µM with MDA-MB-231 breast; 17 µM in the assay with MOLT-4 leukemia; 25.9 µM in the assay with NCI-H226 lung; 10.1 µM in the assay with NCI-H23 lung. Further, the concentration for total growth inhibition (TGI) came to 9.89 µM with NCI-H522 lung, 10.1 µM in the assay with SNB-75 CNS, 7.8 µM in the assay on SR leukemia and 15.3 µM in the assay with TK-10 renal.
Take `C=C1C(=O)O[C@@H]2C[C@@]3(C)CCC[C@H](C)C3=C[C@H]12`: the concentration for total growth inhibition (TGI) in the assay on CCRF-CEM leukemia was determined as 9.94 µM; with HCT-15 colon, 17.1 µM; in the assay with MDA-MB-231 breast, 27.3 µM; in the assay with MOLT-4 leukemia, 4.8 µM; in the assay on NCI-H226 lung it was 29.5 µM; with NCI-H23 lung, 17.5 µM. In addition, the total growth inhibition concentration (TGI) in the assay on NCI-H522 lung amounted to 11.1 µM; with SNB-75 CNS it was 13.4 µM; with SR leukemia, 4.78 µM; in the assay on TK-10 renal it was 9.35 µM.
As for `O=C(CN1CCN(c2ncnc3ccccc23)CC1)Nc1ccc(Cl)cc1C(=O)c1ccccc1Cl`, the GI50 was 0.791 µM in the assay with CCRF-CEM leukemia; 3.12 µM in the assay on HCT-15 colon; 0.387 µM in the assay on MDA-MB-231 breast; 0.472 µM in the assay on MOLT-4 leukemia; 1.15 µM with NCI-H226 lung; 1.18 µM in the assay on NCI-H23 lung. Further, the GI50 in the assay on NCI-H522 lung was 0.258 µM; in the assay with SNB-75 CNS, 0.434 µM; with SR leukemia it was 0.263 µM; in the assay on TK-10 renal, 0.501 µM. In addition, the concentration for total growth inhibition (TGI) with CCRF-CEM leukemia is above 43.8 µM; with HCT-15 colon, 10.8 µM; with MDA-MB-231 breast it was 3.62 µM; with NCI-H226 lung, 6.26 µM; with NCI-H23 lung, 3.87 µM; in the assay with NCI-H522 lung it was 1.55 µM. For the same molecule, the TGI turned out to be 1.48 µM with SNB-75 CNS and 4.44 µM in the assay with TK-10 renal.
On to `O=C1NN(c2ccc(C(=O)O)cc2)C(=O)/C1=C\c1ccc([N+](=O)[O-])o1`, for which the GI50 in the assay on CCRF-CEM leukemia is 22.7 µM; with HCT-15 colon it was 20.4 µM; in the assay on MDA-MB-231 breast, 58.5 µM; with MOLT-4 leukemia, 33.4 µM; in the assay with NCI-H226 lung, above 100 µM; in the assay with NCI-H23 lung it was 75.1 µM. The GI50 in the assay on NCI-H522 lung was 15.7 µM; in the assay on SNB-75 CNS, above 100 µM; in the assay on SR leukemia it was 32.9 µM; in the assay on TK-10 renal, 25.5 µM. Further, the TGI with CCRF-CEM leukemia was 61.8 µM; in the assay on HCT-15 colon, 45.4 µM; in the assay with MDA-MB-231 breast, above 100 µM; with MOLT-4 leukemia it was above 100 µM; with NCI-H226 lung, above 100 µM; with NCI-H23 lung, above 100 µM. The TGI with NCI-H522 lung is 32.8 µM; in the assay with SNB-75 CNS it was above 100 µM; in the assay on SR leukemia, above 100 µM; in the assay with TK-10 renal, 66.8 µM.
Take `Cc1nn(-c2nc3ccccc3s2)c(C)c1Oc1ccccc1O`: the GI50 was 5.14 µM in the assay on CCRF-CEM leukemia; 0.762 µM with HCT-15 colon; 10.8 µM in the assay with MDA-MB-231 breast; 2.56 µM in the assay on MOLT-4 leukemia; 9.07 µM with NCI-H226 lung; 12.3 µM with NCI-H23 lung. In addition, the GI50 with NCI-H522 lung is 5.4 µM; in the assay with SNB-75 CNS it was 1.73 µM; in the assay with SR leukemia, 0.536 µM; in the assay on TK-10 renal, 13.9 µM. Also, the TGI with CCRF-CEM leukemia amounted to 47.8 µM; in the assay on HCT-15 colon, 17.7 µM; with MDA-MB-231 breast it was 25.9 µM; with MOLT-4 leukemia it was 12.5 µM; in the assay on NCI-H226 lung it was 26 µM; in the assay with NCI-H23 lung, 26.3 µM. Further, the TGI came out at 28.9 µM in the assay on NCI-H522 lung, 24.3 µM in the assay on SNB-75 CNS, 2.05 µM in the assay with SR leukemia and 31.9 µM with TK-10 renal.
With `CCC(C)(C)C(=O)O[C@H]1C[C@@H](C)C=C2C=C[C@H](C)[C@H](CC[C@@H]3C[C@@H](O)CC(=O)O3)[C@H]21`, the TGI in the assay on CCRF-CEM leukemia was 30.2 µM and > 30 µM; in the assay on HCT-15 colon, 19 µM and > 30 µM; in the assay with MDA-MB-231 breast, 0.732 µM; with MOLT-4 leukemia, 31.7 µM and > 30 µM; in the assay with NCI-H226 lung, 9.27 µM; with NCI-H23 lung it was 15.3 µM and 3.55 µM. The TGI in the assay with NCI-H522 lung was 5.26 µM; with SNB-75 CNS, 5.37 µM and > 30 µM; in the assay with SR leukemia, 13.1 µM and > 30 µM; in the assay with TK-10 renal it was 18.2 µM. For the same molecule, the GI50 in the assay on HCT-15 colon is 2.15 µM; in the assay with MDA-MB-231 breast it was 0.224 µM; in the assay on MOLT-4 leukemia, 14.6 µM; in the assay on NCI-H226 lung, 2.32 µM; in the assay with NCI-H23 lung, 1.79 µM; in the assay on NCI-H522 lung it was 0.826 µM. Moreover, the values for the GI50 with SR leukemia and with TK-10 renal were 1.72 µM and 5.38 µM, respectively.

Values taken from PubChem BioAssay (NCI).
